The source of these data is patent US7312306B2, “Substituted heterocyclic acyl-tripeptides useful as thrombin receptor modulators” (Ortho-McNeil Pharmaceutical, Inc., priority 1998, dated 2007).

Structures are written as SMILES. Like-named read-outs stand apart in the source and are kept apart here. Starred links: 1 amine or outer side, 2 acyl side, 3 side chain; linkers in the order of their positions; H or OH if unused. Non-standard residues stand in square brackets, D forms with d. Residues, ends and D or L forms follow the SMILES beside them. ξ: configuration not given here. Triazole(1,2,4-3-CO,5-NH) = O=C(c1n[nH]c(N[*:1])n1)[*:2]; Phe(4-F) = N[CH](Cc1ccc(F)cc1)C(=O)O; ξNip = O=C(C1CCCN([*:1])C1)[*:2]; Cha = N[CH](CC1CCCCC1)C(=O)O

In general, EC50 refers to the concentration giving half of the maximal effect. In general, IC50 refers to the concentration needed to halve the response being measured.

The test system of one test is platelet aggregation. Kind of test: In vitro agonist platelet aggregation assay (gel-filtered platelets). Type of test: cell-based, Human. As for the experimental part:
(§1) In Vitro Agonist Platelet Aggregation Assay/Inhibition of Thrombin-induced Gel-filtered Platelet Aggregation Assay
(§2) The percentage of platelet aggregation is calculated as an increase in light transmission of compound-treated platelet concentrate vs. control-treated platelet concentrate. Human blood is obtained from drug free, normal donors into tubes containing 0.13 M sodium citrate. Platelet rich plasma (PRP) is collected by centrifugation of whole blood at 200×g for 10 min at 25° C. The PRP (5 mL) is gel filtered through Sepharose 2B (bed volume 50 mL), and the platelet count is adjusted to 2×10^7 platelets per sample. The following constituents are added to a siliconized cuvette: concentrated platelet filtrate and Tyrode's buffer (0.14 M NaCl, 0.0027 M KCl, 0.012 M NaHCO3, 0.76 mM Na2HPO4, 0.0055 M glucose, 2 mg/mL BSA and 5.0 mM HEPES @ pH 7.4) in an amount equal to 350 l, 50 l of 20 mM calcium and 50 l of the test compound. Aggregation is monitored in a BIODATA aggregometer for the 3 min following the addition of agonist (thrombin 50 l of 1 unit/mL).

Test [1] relates to gel-filtered platelets aggregation induced by thrombin. In words: Inhibition of thrombin-induced gel-filtered platelet aggregation assay. The settings on record: Homo sapiens. It is filed as cell-based. The procedure:
as §1, §2

The mark [2] stands for this setting: agonist activity, human gel-filtered platelets, Table 1, read-out: EC50 (M), EC50 values for platelet aggregation.
Where [3] appears, read: Homo sapiens, read-out: EC50 (M), EC50 values for platelet aggregation.
[4] abbreviates: gel-filtered platelets aggregation induced by thrombin, Table 2, read-out: IC50 (M), inhibition of platelet aggregation.

As for `N=C(N)NCCC[C@H](NC(=O)[C@H](CC1CCCCC1)NC(=O)c1n[nH]c(N)n1)C(=O)N[C@@H](Cc1ccccc1)C(N)=O` [Compound 1], in the test on platelet aggregation (setting [2]), the EC50 came to 7.5e-07 M.

In the case of `N=C(N)NCCCC(NC(=O)C(Cc1ccccc1)NC(=O)C(CCCNC(=N)N)NC(=O)C(CC1CCCCC1)NC(=O)c1n[nH]c(N)n1)C(N)=O` (centres unmarked) [Compound 9] ({Triazole(1,2,4-3-CO,5-NH)}-[Cha]RFR-NH2; configuration not given here), the EC50 in the test with platelet aggregation (setting [3]) worked out at 1.21e-06 M.

On to `N=C(N)NCCCC(NC(=O)C(CC1CCCCC1)NC(=O)c1n[nH]c(NC(=O)C(F)=Cc2ccccc2)n1)C(=O)NC(Cc1ccccc1)C(N)=O` (centres unmarked) [Compound 12], for which, in the test with platelet aggregation (setting [2]), the EC50 amounted to 1.72e-06 M.

Turning to `N=C(N)NCCCC(NC(=O)C(CC1CCCCC1)NC(=O)c1n[nH]c(NC(=O)C=Cc2ccc(F)cc2)n1)C(=O)NC(Cc1ccccc1)C(N)=O` (centres unmarked) [Compound 26], the IC50 in test [1] (read-out: IC50 (M), inhibition of platelet aggregation) was 1.3e-05 M. For the same molecule, the EC50 in the test on platelet aggregation (setting [3]) came out at 7.9e-06 M.

As for `N=C(N)NCCCC(NC(=O)C(CC1CCCCC1)NC(=O)C1CCCN(C(=O)C(N)Cc2ccc(F)cc2)C1)C(=O)NC(Cc1ccccc1)C(N)=O` (centres unmarked) [Compound 32] (H-[Phe(4-F)][ξNip][Cha]RF-NH2; configuration not given here), the concentration for a half-maximal effect (EC50) in the test with platelet aggregation (setting [2]) was determined as 2.6e-05 M.

As to `N=C(N)NCCCC(NC(=O)C(CC1CCCCC1)NC(=O)c1n[nH]c(NC(=O)C(=Cc2ccccc2)c2ccccc2)n1)C(=O)NC(Cc1ccccc1)C(N)=O` (centres unmarked) [Compound 34], in test [1] (setting [4]), the IC50 amounted to 1.9e-05 M.

For `Cc1c(S(=O)(=O)N[C@@H](CC2CCCCC2)C(=O)N[C@@H](CCCNC(=N)N)C(=O)N[C@@H](Cc2ccccc2)C(N)=O)sc2ccc(Cl)cc12` [Compound 36], in test [1] (setting [4]), the IC50 was found to be 8.4e-06 M.

As for `N=C(N)NCCC[C@H](NC(=O)[C@H](CC1CCCCC1)NC(=O)c1cc2ccccc2s1)C(=O)N[C@@H](Cc1ccccc1)C(N)=O` [Compound 37], the IC50 in test [1] (setting [4]) is 2.1e-05 M.

Consider `N=C(N)NCCC[C@H](NC(=O)[C@H](CC1CCCCC1)NC(=O)c1ccc2[nH]cnc2c1)C(=O)N[C@@H](Cc1ccccc1)C(N)=O` [Compound 41], for which the EC50 in the test with platelet aggregation (setting [2]) was 4e-06 M.

For the molecule `N=C(N)NCCC[C@H](NC(=O)[C@H](CC1CCCCC1)NS(=O)(=O)c1ccc2ccccc2c1)C(=O)N[C@@H](Cc1ccccc1)C(N)=O` [Compound 43], the IC50 in test [1] (setting [4]) is 1.25e-05 M.
